# Results reported in ChEMBL document CHEMBL1156962, “Evaluation of retro-inverso modifications of HTLV-1 protease inhibitors containing a hydroxyethylamine isoster” (Bioorg Med Chem, 2010).
# Experiment: Inhibition of HTLV1 protease assessed as decrease in substrate concentration by HPLC analysis
# Design: species or system Human T-cell leukemia virus type I
row,SMILES,IC50 [µM]
1,CC[C@H](C)[C@@H](NC[C@H](O)[C@@H](CC(C)C)NC(=O)[C@H]1CCCN1C(C)=O)C(=O)N[C@@H](C(=O)N1CCC[C@@H]1C(N)=O)C(C)C,> 10000
2,CC[C@@H](C)[C@@H](NC(=O)[C@@H](CC(C)C)[C@H](O)C[C@H]1CCCN1C(=O)NCc1ccccc1)C(=O)N[C@@H](C(=O)N1CCC[C@@H]1C(=O)N1CCC[C@@H]1C(N)=O)C(C)C,160
3,CC[C@H](C)[C@@H](NC[C@H](O)[C@@H](CC(C)C)NC(C)=O)C(=O)N[C@@H](C(=O)N1CCC[C@@H]1C(N)=O)C(C)C,> 10000

# Further lines, results first:
row,IC50 [µM],SMILES
1,550,CC[C@@H](C)[C@@H](NC(=O)[C@@H](CC(C)C)[C@@H](O)C[C@H]1CCCN1C(=O)NCc1ccccc1)C(=O)N[C@@H](C(=O)N1CCC[C@@H]1C(=O)N1CCC[C@@H]1C(N)=O)C(C)C
2,350,CC[C@@H](C)[C@@H](NC(=O)[C@H](CC(C)C)[C@H](O)C[C@H]1CCCN1C(=O)NCc1ccccc1)C(=O)N[C@@H](C(=O)N1CCC[C@@H]1C(=O)N1CCC[C@@H]1C(N)=O)C(C)C
3,1500,CC[C@@H](C)[C@@H](NC(=O)[C@H](CC(C)C)[C@@H](O)C[C@H]1CCCN1C(=O)NCc1ccccc1)C(=O)N[C@@H](C(=O)N1CCC[C@@H]1C(=O)N1CCC[C@@H]1C(N)=O)C(C)C
